Test results: patent publication US20080146656A1, “Use of a steroid sulphatase inhibitor for inhibiting the synthesis of androstenedione and/or testosterone” (priority 2005, published 2008)

Experiments:
[1] = test system: plasma androstenedione; oestrone sulphate (E1S) to oestrone (E1) ratio; assay: Male volunteer study: plasma steroids after EMATE; settings: 40 mg
STS = biological target: T1, STS (Homo sapiens, UniProt P08842); assay: Male volunteer study: STS activity after EMATE; type: in vivo, volunteer subject; settings: 40 mg, FIG. 12
T1 construct: endogenous in cells; host or cells: volunteer subject
T1 sequence (P08842 22-583): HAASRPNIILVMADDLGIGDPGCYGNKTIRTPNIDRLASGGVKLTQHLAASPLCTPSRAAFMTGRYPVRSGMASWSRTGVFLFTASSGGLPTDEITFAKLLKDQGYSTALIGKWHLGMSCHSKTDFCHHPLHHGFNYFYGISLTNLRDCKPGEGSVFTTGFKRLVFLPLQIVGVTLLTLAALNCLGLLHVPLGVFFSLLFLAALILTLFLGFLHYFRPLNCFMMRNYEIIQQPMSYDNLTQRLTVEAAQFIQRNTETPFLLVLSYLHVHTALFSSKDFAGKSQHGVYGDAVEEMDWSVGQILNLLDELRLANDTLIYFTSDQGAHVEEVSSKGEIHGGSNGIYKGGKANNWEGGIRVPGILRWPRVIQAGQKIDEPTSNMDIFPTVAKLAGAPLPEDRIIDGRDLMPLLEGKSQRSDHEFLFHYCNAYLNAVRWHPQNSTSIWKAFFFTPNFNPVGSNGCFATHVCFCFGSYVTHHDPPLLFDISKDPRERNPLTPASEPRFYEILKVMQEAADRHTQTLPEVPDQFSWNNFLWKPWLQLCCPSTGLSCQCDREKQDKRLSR

steroid sulphatase (STS) = biological target: T2, steroid sulphatase (STS) (Homo sapiens, UniProt P08842); assay: Phase I trial: STS activity in peripheral blood lymphocytes after oral STX64; type: in vivo, humans
T2 construct: endogenous in cells; host or cells: peripheral blood lymphocytes (PBLs) of patients dosed orally with STX64
T2 sequence (P08842 22-583): T1 sequence (P08842 22-583)
Procedure: (§1) In the Phase I trial STX64 (5 mg or 20 mg) was administered orally as a single test dose on day 1 of the trial. Twenty four hours (24 h) later a blood sample was taken to evaluate STS activity in peripheral blood lymphocytes (PBLs) and also to measure steroid hormone concentrations. On day 8 of the trial patients received daily dosing for 5 days with a further blood sample being collected at the end of this period on day 12 (D12).
STS activity was measured in PBLs isolated from 10 ml blood collected using a vacutainer. The enzyme in the cells was solubilized with phosphate-buffered saline/Triton X-100 and STS activity measured using a physiological (2-3 nM) substrate concentration of ^3H estrone sulphate [^3H-E1S] over a 20 h period.

[2] = test system: serum androstenedione, testosterone, E1, E2, DHEAS and DHEA; assay: Phase I trial: serum steroid hormone concentrations after oral STX64; type: in vivo, humans
Procedure: The assay for the determination of androstenedione, testosterone, E1 and E2 was the gas chromatographic tandem mass spectroscopic method of Wang et al., (2005). Recombinant cell ultra-sensitive bioassay for measurements of estrogens in postmenopausal women. J Clin Endocrinol Metab (In press).
as §1
Serum concentrations of the steroids listed below were measured: […]

Row | Structure (SMILES) | persistence of the reduction in plasma androstenedione concentration [1] | reduction in the plasma androstenedione concentration [1] | oestrone sulphate (E1S) to oestrone (E1) ratio ([1]; FIG. 12) | STS activity (STS) | inhibition at 5 mg (steroid sulphatase (STS); 5 mg dose, read-out: inhibition of steroid sulphatase (STS) activity, as measured in peripheral blood lymphocytes) [%] | inhibition at 20 mg (steroid sulphatase (STS); 20 mg dose, read-out: inhibition of steroid sulphatase (STS) activity, as measured in peripheral blood lymphocytes) [%] | STS activity, as measured in PBLs (steroid sulphatase (STS); 24 h after the test dose and on day 12 of the trial, oral 5 mg or 20 mg, FIG. 2) | serum androstenedione concentrations ([2]; 5 mg and 20 mg doses, FIG. 11 (ii)) | serum testosterone concentrations ([2]; 5 mg and 20 mg doses, FIG. 11 (iii)) | serum androstenedione concentration ([2]; 24 h and day 12 time points after administration, FIG. 3) | serum testosterone concentration ([2]; 24 h and day 12 time points after administration, FIG. 4) | serum E1 concentration ([2]; Phase I trial, FIG. 5) | serum E2 concentration ([2]; Phase I trial, FIG. 6) | ratios of DHEAS: DHEA ([2]; both the 5 mg and 20 mg doses, FIG. 11 (i)) | serum Adione concentration ([2]; individual patient, 24 h after initial single dose, FIGS. 7 and 9) | Adione concentrations ([2]; individual patient, following daily dosing for 5 days (D5+8 h), FIGS. 7 and 9)
1 | C[C@]12CC[C@@H]3c4ccc(OS(N)(=O)=O)cc4CC[C@H]3[C@@H]1CCC2=O [EMATE, oestrone-3-O-sulphamate] | up to 15 days | 20-30% | marked increase | almost completely inhibited | – | – | – | – | – | – | – | – | – | – | – | –
2 | NS(=O)(=O)Oc1ccc2c3c(c(=O)oc2c1)CCCCC3 [STX64] | – | – | – | – | > 90 | > 90 | almost completely inhibited | marked decreases | marked decreases | decreased significantly | decreased significantly | significant decreases | significant decreases | marked increase | marked decrease | further decrease
